Experiments:
[1] = tested on: human microvascular endothelial cells (HMEC-1); assay: Inhibition of LDL-Dil transcytosis through HMEC-1; type: cell-based; details: 2 h, mean ± s.e.m.; for Inhibition of LDL transcytosis, % of inhibition to control, Stimulated cells: HMEC-1 activated with 100 μM histamine; for Inhibition of LDL transcytosis, % of inhibition to control, Resting cells: non activated HMEC-1
Text: The method used in the assays to determine the effect of the compounds on LDL transcytosis in human microvascular endothelial cells is substantially the same as described in Colomé C. et al; Atherosclerosis 2000; 149: 295-302. This test allows a prediction on the anti-atherosclerotic potential of the compounds, since the accumulation of LDL in the vascular wall as a consequence of a vascular endothelial cell active transport is one of the first steps in the development of atherosclerosis.
The method used in the assays to isolate LDL particles from fresh human plasma and the labelling with Di1 is substantially the same as described in Pedreño J. et al., Atherosclerosis 2001; 155: 99-112, and Stephan Z. F. and Yuracheck E. C. J. Lipid Res. 1993; 34:325-330
Activated (100 μM histamine) and non activated HMEC-1 were cultivated in the upper well of inserted of coculture until to reach confluence (Falcon HTS FluorBloK). Then, LPL-Dil (up to 200 μg/ml) was added and cells were incubated for 2 h in the presence and absence of compounds. After these two hours, transcytosis of LDL-Dil particles through endothelial cells was assessed by determination of the presence of fluorescence in the lower well of insert of coculture. Results are expressed as percentage of inhibition respect to control in the absence of compounds).

[2] = tested on: LDL; assay: Inhibition of LDL oxidation induced by haemin and H2O2 (conjugated dienes, 234 nm); type: biochemical, human; details: compounds at 10 μM; 2.5 μM haemin and 5 μM H2O2; mean ± s.e.m.
Text: The method used in the assays to determine the effect of the compounds on LDL oxidation is substantially the same as described in the following references: • Sprenger T., et al., Chem. Phys. Lipids 1998; 91:39-52 • Lynch S. M., et al., Biochim. Biophys. Acta 2000; 1485:11-22 • Pedreño J., et al., Thromb. Res. 2000; 99: 51-60.
The method used in the assays to isolate LDL particles from fresh human plasma is substantially the same as described in Pedreño J., et al., Atherosclerosis 2001; 155: 99-112.
Oxidative modification of low-density lipoprotein (LDL) is currently believed to be a central event it the development of atherosclerotic cardiovascular disease. The exposition of LDL to globin-free haemin (the complex of ferric ion (Fe^3+) with protoporphyrin IX), derived from the haemoglobin in circulating erythrocytes, serves as a physiological source of pro-oxidant Fe^3+ capable to promoting LDL oxidation. The compounds were added in vitro to determine their inhibitory activity on LDL oxidation induced by haemin and H2O2. LDL at a final protein concentration of 0.2 mg/ml was incubated in the presence of 2.5 μM haemin and 5 μM H202. Oxidative modification of LDL particles was assessed by measurement of conjugated dienes. Experimental samples were incubated at 37° C. and the increase in absorbance at 234 nm was automatically recorded every 5 min for at least 5 h. The effect of compounds on the LDL oxidation induced by haemin was tested at 7 different concentrations using LDL preparations from 7 different healthy donors.

[3] = tested on: Rats, left carotid artery thrombosis (FeCl3); assay: In vivo antithrombotic effect, FeCl3 carotid artery thrombosis; set-up: species or system rat; details: single oral dose of 100 mg/Kg; no occlusion during 60 min after FeCl3 patch
Description: The method used is substantially the same as described by Kurz (Kurz K. D., et al., Thromb. Res. 1990, 60:269-280) and modified by Feuerstein (Feuerstein G. Z., et al., Artherioscler. Thromb. Vase. Biol. 1999, 19: 2554-25562).
Rats received a single oral dose of 100 mg/Kg of the compounds.
Forty-five minutes after dosing rats were anaesthetized with sodium pentobarbital (40 mg/kg, i.p.) and they were placed later dorsally on a heated (37° C.) surgical board.
The left carotid artery was isolated and a Parafilm 4 sheet (7×20 mm, American National Can) was placed under it. An electromagnetic sounding of flow (Transonic Systems Inc.) was placed on the artery to measure blood flow.
Sixty minutes after product administration, a paper patch saturated with FeCl3 solution (70%) was placed (and not removed for the whole duration of the experiment) on the left carotid artery downstream from the sounding of flow to initiate thrombosis. The blood flow was controlled during the 60 min later to the application of the patch in the artery.
The vessel was considered totally occluded by the thrombus formed when no blood flow was detected (0.0 ml/min). In this model, thrombus formation usually takes place within 15 to 20 minutes in non-treated animals.

Q: How did the “Inhibition of LDL transcytosis, % of inhibition to control, Stimulated cells” value [1] turn out when CC(=O)S[C@H]1CO[C@H]2[C@@H]1OC[C@H]2O[N+](=O)[O-] [(12), 2-acetylthio-isosorbide-5-mononitrate] was run?
A: Its value is 80 ± 12%.

Q: What about the “Inhibition of LDL transcytosis, % of inhibition to control, Resting cells” value [1] of the same compound?
A: Its value is 51 ± 19%.

Q: And the “% of increment of lag phase with respect to control (LDL oxidation)” value [2]?
A: The value was 117 ± 56%.

Q: And the “% of animals fully protected” value [3]?
A: The value was 71%.

Q: O=[N+]([O-])O[C@@H]1CO[C@H]2[C@@H]1OC[C@@H]2S [(1), 2-thioisosorbide 5-mononitrate] was tested. Which “Inhibition of LDL transcytosis, % of inhibition to control, Stimulated cells” value [1] did it give?
A: Its value is 122 ± 8%.

Q: What about the “Inhibition of LDL transcytosis, % of inhibition to control, Resting cells” value [1] of the same compound?
A: The value was 58 ± 15%.

Q: And the “% of increment of lag phase with respect to control (LDL oxidation)” value [2]?
A: The value was 290 ± 8%.

Q: And the “% of animals fully protected” value [3]?
A: Its value is 100%.

Source: patent US8541607B2, “Disulfide, sulfide, sulfoxide, and sulfone derivatives of cyclic sugars and uses thereof” (Lacer, S.A., priority 2003, dated 2013)
